Source: US8115060B2, “Means and methods of controlling plant seed germination” (Applied Biotechnology Institute, Inc., priority 2008, dated 2012)

Experiments:
[1] = system: seeds from transformation events containing the avidin gene; assay: Germination of T1 seeds containing the avidin gene, imbibed with and without biotin; format: in vivo, maize
[2] = system: non-transformed seeds; assay: Germination of non-transformed seeds imbibed in water with biotin; conditions: biotin in water used for imbibing
From the text: Since our T0 plants were crossed with non-transgenic maize in the greenhouse, it is expected that half of the seeds in our initial transformed plants (T1 seed) should not carry the avidin gene.

[3] = system: corn plants expressing avidin with a constitutive promoter targeted to the cell wall; assay: Reversal of avidin-induced male sterility by application of biotin to corn plants; format: in vivo; conditions: biotin applied to plants; unpublished results
From the text: Biotin is a B vitamin and provides a safe chemical for seed treatment. In addition, biotin is inexpensive and readily available. […] When avidin was expressed in corn plants with a constitutive promoter targeted to the cell wall, male sterility occurred (14).

O=C(O)CCCC[C@@H]1SC[C@@H]2NC(=O)N[C@@H]21 [biotin]
number of seeds that failed to germinate ([1]; 20 seeds from a single ear of transformed corn imbibed with biotin, after one week, best result): one
change in number of non germinating seeds when biotin applied during imbibing ([1]; several experiments testing 240 seeds, compared with water): cut in half
biotin concentration tolerated with no detrimental signs of any effect on germination [2]: up to 10 μg/ml
reversal of male sterility caused by avidin [3]: able to reverse the effect of avidin and render the plants fertile
